# Reference: ChEMBL document CHEMBL1201862, “PubChem BioAssay data set” (2004)
# Activity calls are given as the source filed them.
# What was measured:
# Mucolipin-3 = biological target: T1, Mucolipin-3 (Homo sapiens, UniProt Q8TDD5); test: Dose response cell-based high-throughput screening assay for agonists of the transient receptor potential channel ML3 (TRPML3). [Related pubchem assays: 1526, 1424, 1448 ]; type: functional
# T1 sequence (Q8TDD5 whole entry): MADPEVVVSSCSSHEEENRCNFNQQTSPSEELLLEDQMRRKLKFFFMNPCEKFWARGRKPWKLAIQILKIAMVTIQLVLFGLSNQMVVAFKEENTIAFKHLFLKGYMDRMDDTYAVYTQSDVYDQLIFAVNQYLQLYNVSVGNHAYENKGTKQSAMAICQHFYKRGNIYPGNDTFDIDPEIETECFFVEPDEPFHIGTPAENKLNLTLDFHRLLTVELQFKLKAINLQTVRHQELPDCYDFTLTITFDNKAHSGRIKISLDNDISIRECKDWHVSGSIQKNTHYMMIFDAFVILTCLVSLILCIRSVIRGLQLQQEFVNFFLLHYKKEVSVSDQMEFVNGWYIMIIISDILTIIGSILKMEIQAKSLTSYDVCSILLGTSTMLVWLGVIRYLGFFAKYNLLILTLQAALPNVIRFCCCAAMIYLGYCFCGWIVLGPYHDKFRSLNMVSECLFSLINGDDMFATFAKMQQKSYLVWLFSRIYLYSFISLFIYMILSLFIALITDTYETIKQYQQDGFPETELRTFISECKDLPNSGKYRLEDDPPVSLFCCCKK
# Ion channel NompC = Ion channel NompC (Danio rerio, UniProt Q7T1G6); test: Fluorescence counterscreen assay for TRPML3 agonists: dose response cell-based high-throughput screening assay to identify agonists of the transient receptor potential channel N1 (TRPN1). [Related pubchem assays: 1526, 1424, 1448 ]; type: functional
# Chain of Ion channel NompC (Q7T1G6 whole entry, the tested form may be a part): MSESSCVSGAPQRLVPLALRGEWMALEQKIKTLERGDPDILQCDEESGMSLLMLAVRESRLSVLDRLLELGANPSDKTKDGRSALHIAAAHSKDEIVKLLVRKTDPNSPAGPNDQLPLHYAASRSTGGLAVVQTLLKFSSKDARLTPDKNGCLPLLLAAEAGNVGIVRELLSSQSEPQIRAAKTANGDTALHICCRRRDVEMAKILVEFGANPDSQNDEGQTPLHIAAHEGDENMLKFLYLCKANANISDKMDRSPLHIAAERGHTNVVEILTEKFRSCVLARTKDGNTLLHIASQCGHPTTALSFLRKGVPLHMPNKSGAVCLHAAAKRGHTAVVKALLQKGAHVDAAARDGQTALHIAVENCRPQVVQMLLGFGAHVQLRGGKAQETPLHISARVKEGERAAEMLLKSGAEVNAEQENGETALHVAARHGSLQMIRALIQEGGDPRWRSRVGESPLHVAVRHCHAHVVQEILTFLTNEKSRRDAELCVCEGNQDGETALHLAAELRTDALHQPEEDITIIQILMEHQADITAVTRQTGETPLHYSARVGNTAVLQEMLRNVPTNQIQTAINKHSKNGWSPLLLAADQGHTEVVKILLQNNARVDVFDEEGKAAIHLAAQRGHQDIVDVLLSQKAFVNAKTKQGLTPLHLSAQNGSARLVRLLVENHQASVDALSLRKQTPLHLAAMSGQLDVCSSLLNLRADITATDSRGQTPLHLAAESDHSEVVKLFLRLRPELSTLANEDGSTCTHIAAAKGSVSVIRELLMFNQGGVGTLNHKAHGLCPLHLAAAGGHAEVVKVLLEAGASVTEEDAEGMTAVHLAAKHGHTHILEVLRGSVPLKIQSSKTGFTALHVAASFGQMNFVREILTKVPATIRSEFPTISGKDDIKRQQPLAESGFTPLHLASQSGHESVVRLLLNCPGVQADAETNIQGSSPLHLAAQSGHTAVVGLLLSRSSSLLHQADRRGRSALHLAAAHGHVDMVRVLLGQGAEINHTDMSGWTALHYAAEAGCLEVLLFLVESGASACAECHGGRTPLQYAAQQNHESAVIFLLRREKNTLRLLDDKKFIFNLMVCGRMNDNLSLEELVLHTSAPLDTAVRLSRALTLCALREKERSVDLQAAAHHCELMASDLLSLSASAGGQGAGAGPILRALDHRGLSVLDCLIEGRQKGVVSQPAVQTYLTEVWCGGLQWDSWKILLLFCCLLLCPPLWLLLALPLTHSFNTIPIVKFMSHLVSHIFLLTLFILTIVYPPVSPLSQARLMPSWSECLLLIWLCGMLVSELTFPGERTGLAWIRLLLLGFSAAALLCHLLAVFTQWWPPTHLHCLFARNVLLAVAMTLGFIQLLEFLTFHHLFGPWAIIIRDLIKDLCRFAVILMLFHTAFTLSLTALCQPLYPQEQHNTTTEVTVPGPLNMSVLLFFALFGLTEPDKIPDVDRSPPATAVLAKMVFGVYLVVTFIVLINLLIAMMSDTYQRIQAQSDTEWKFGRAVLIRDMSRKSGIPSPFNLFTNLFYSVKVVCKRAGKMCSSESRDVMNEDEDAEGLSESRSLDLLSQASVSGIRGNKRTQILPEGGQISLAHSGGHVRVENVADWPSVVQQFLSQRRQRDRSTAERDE
# Estrogen receptor [1] = biological target: T2, Estrogen receptor (Homo sapiens, UniProt P03372); test: potentiators of ERα–SRC-1 coactivator binding, dose response, biochemical, TR-FRET, ERα LBD (AID 737)
# T2 sequence (P03372 whole entry): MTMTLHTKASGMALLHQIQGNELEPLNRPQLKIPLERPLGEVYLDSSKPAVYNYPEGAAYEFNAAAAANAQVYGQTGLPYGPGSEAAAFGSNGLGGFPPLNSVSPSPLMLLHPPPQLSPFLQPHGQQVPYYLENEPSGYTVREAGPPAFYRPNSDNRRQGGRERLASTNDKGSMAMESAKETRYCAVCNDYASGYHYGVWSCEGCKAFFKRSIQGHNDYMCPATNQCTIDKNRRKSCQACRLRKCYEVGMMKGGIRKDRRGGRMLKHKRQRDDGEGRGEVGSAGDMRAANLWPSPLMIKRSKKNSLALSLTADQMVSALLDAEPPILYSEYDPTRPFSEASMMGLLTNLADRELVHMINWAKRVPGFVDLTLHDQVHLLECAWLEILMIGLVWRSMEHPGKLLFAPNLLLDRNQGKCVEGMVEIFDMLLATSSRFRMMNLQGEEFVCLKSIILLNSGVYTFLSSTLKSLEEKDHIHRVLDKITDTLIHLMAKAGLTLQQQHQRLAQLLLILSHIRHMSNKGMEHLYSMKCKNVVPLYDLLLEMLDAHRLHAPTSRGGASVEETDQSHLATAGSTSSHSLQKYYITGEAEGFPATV
# NADPH oxidase 1 = biological target: T3, NADPH oxidase 1 (Homo sapiens, UniProt Q9Y5S8); type: functional, cell-based;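 further: Cell-based assay with luminescence read-out, IC50 derived from inhibitor dose-response curves; intracellular ROS from endogenous NOX1 in intact HT29 colon cancer cells; potency of inhibitors that lower the ROS luminescence signal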
# T3 sequence (Q9Y5S8 whole entry): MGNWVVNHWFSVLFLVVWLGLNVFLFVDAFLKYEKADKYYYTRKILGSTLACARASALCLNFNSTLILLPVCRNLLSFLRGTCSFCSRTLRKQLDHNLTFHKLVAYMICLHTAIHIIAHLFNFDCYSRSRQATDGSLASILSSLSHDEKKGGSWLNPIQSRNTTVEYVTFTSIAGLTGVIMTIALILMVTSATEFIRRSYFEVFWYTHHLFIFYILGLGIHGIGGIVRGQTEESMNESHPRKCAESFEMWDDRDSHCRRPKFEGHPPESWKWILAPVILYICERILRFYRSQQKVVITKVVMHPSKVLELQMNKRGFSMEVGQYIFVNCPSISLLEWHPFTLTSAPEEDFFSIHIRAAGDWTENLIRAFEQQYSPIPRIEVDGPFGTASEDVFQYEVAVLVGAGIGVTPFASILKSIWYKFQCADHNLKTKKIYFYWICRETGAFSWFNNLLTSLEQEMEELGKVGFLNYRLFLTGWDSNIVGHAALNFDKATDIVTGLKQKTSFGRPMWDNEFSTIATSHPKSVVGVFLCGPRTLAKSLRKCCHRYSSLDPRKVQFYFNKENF
# Insulin-degrading enzyme = biological target: T4, Insulin-degrading enzyme (Homo sapiens, UniProt P14735); test: Dose Response: Fluorescence polarization-based cell-based high throughput dose response assay for inhibitors of insulin-degrading enzyme (IDE). [Related pubchem assays: 434962 (Primary screen (IDE inhibitors in singlicate)), 449730 (Counterscreen (Cytotoxicity in triplicate)), 435028 (Confirmation (IDE inhibitors in triplicate)), 434984 (Summary …; type: functional
# T4 sequence (P14735 whole entry): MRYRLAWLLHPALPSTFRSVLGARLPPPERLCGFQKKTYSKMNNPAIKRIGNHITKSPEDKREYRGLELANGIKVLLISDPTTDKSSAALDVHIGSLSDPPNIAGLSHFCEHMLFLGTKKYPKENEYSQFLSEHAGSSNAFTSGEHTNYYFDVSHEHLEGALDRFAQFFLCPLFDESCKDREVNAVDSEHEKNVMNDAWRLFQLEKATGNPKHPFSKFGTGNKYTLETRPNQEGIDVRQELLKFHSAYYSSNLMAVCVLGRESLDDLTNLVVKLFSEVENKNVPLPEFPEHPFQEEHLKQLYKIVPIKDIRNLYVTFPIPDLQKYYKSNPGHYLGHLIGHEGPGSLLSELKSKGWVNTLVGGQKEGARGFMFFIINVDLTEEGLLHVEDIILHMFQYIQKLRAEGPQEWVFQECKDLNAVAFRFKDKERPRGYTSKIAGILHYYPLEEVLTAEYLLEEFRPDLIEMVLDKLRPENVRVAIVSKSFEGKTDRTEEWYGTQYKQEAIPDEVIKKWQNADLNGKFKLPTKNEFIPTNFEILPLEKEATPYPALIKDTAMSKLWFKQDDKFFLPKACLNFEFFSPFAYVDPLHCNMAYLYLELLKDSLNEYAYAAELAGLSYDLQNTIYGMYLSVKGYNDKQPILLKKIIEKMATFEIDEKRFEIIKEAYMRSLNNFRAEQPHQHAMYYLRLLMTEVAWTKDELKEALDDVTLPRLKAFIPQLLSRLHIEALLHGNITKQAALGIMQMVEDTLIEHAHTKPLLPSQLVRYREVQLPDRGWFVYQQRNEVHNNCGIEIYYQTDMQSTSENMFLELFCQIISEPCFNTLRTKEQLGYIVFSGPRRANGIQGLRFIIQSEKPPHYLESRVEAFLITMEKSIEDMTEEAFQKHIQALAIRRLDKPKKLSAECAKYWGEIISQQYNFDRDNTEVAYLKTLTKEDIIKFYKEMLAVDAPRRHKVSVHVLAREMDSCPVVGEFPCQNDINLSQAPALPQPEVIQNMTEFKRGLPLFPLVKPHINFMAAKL
# [2] = Counterscreen for IDE inhibitors: Luminescence-based cell-based high throughput dose response assay to identify compounds that are cytotoxic to HEK cells. [Related pubchem assays: 434962 (Primary screen (IDE inhibitors in singlicate)), 449730 (Counterscreen (Cytotoxicity in triplicate)), 435028 (Confirmation (IDE inhibitors in triplicate)) …; type: functional; settings: HEK293
# [3] = enhancers of respiration in Yfh1-depleted yeast, dose response, Friedreich's ataxia, plus single-dose screen (AID 1465); type: functional;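 further: yeast depleted of Yfh1p frataxin homolog grown on glycerol needing respiration; WST-1 tetrazolium dye reduction as measure of cellular dehydrogenase metabolic activity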
# [4] = HEp-2 cell cytotoxicity, dose response, cytotoxicity control for RSV inhibitor project, HTS (AID 2410); type: functional; settings: human respiratory syncytial virus
# Estrogen receptor beta [5] = biological target: T5, Estrogen receptor beta (Homo sapiens, UniProt Q92731); test: ERβ–SRC-3 coactivator interaction inhibitors, confirmation, orthogonal assay, biochemical, ELISA, streptavidin-HRP readout (AID 1060)
# T5 sequence (Q92731 whole entry): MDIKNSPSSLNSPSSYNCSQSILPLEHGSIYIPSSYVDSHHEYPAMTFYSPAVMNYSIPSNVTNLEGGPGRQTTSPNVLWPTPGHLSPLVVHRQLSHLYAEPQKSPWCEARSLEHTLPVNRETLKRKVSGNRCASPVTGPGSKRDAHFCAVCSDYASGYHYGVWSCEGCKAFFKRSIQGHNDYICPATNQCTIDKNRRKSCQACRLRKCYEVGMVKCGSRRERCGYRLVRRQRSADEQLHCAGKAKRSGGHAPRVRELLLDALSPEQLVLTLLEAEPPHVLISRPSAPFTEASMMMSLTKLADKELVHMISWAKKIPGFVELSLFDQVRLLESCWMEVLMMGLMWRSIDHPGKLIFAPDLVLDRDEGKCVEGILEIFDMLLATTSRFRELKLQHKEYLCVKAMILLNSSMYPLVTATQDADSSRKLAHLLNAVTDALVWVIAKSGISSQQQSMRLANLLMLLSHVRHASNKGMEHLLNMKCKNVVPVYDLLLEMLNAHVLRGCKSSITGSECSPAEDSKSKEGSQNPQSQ
# Estrogen receptor [6] = biological target: T2, Estrogen receptor
# Estrogen receptor beta [7] = biological target: T5, Estrogen receptor beta
# [8] = Shn3 3'UTR reporter inhibitors, dose response, cell-based, Clone20 osteoblasts, firefly luciferase, cherry-picked (AID 624132); type: functional;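 further: firefly luciferase luminescence from reporter carrying the Shn3 3'UTR in osteoblasts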
# [9] = biological target: T6, Microphthalmia-associated transcription factor (Homo sapiens, UniProt O75030); test: TRPM1 promoter luciferase signal decrease, dose response, MITF inhibitor project, cell-based, SK-MEL-5, cherry-picked, set 3 (AID 493073); type: functional
# T6 sequence (O75030 whole entry): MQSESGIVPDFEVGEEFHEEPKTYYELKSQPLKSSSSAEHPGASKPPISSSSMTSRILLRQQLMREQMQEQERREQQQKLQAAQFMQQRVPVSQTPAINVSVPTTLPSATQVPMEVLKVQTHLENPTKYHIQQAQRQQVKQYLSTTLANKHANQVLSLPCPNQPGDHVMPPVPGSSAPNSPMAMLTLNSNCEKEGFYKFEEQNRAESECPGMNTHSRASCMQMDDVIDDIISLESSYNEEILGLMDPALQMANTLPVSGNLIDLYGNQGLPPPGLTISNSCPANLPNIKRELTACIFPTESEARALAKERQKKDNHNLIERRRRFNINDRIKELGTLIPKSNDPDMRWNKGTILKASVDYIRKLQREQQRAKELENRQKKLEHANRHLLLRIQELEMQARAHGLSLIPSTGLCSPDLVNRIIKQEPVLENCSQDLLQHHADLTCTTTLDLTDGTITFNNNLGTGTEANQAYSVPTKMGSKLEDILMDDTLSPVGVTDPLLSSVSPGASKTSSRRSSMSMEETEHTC
# [10] = HepG2 cell cytotoxicity, dose response, cytotoxicity control for Shn3 inhibitor project, CellTiter-Glo, cherry-picked (AID 624134); type: functional, cell-based
# [11] = Luminescence-based counterscreen assay for KLF5 inhibitors: dose response cell-based high throughput screening assay to identify cytotoxic compounds using the IEC-6 intestinal epithelial cell line. [Related pubchem assays: 1700 (Primary screen.), 1834 (Confirmation screen.), 1858 (Summary AID.), 1905 (Counterscreen.)]; type: functional
# [12] = Luminescence Cell-Based Dose Response HTS to Identify Inhibitors of 5'UTR Stem-Loop Driven Prion Protein mRNA Translation in H4 Neuroglioblastoma Cells. [Related pubchem assays: 1827 (Project Summary), 1813 (Primary HTS)]; type: functional
# [13] = inhibitors of firefly luciferase expression or activity, dose response, H4 neuroglioma cells, luminescence (AID 1990); type: functional, cell-based
# [14] = reduction of Shn3 3'UTR firefly luciferase signal, dose response, Schnurri-3 inhibitor project, cell-based, Clone20 osteoblasts, cherry-pick, set 2 (AID 720490); type: functional;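 further: actives lower the luminescence signal as inhibitors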
# [15] = biological target: T7, RNA-binding protein pos-1 (Caenorhabditis elegans, UniProt G5EF15); test: inhibitors of POS-1/mex-3 RNA binding, dose response, biochemical, fluorescence polarization (AID 1964);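 further: purified POS-1 fused to maltose binding protein made in E. coli; potency of compounds blocking POS-1 binding to fluorescent RNA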
# T7 sequence (G5EF15 whole entry): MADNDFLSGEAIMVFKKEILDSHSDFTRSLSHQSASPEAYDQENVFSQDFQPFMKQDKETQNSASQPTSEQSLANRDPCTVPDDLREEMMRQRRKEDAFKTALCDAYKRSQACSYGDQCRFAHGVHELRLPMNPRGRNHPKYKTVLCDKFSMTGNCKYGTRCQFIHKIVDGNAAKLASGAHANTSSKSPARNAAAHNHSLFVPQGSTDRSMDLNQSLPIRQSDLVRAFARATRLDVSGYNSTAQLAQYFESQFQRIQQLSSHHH
# NS3 = NS3 (Hepatitis C virus, UniProt A3EZJ3); test: PubChem AID 2173; set-up: species or system Hepacivirus hominis
# Chain of NS3 (A3EZJ3 whole entry): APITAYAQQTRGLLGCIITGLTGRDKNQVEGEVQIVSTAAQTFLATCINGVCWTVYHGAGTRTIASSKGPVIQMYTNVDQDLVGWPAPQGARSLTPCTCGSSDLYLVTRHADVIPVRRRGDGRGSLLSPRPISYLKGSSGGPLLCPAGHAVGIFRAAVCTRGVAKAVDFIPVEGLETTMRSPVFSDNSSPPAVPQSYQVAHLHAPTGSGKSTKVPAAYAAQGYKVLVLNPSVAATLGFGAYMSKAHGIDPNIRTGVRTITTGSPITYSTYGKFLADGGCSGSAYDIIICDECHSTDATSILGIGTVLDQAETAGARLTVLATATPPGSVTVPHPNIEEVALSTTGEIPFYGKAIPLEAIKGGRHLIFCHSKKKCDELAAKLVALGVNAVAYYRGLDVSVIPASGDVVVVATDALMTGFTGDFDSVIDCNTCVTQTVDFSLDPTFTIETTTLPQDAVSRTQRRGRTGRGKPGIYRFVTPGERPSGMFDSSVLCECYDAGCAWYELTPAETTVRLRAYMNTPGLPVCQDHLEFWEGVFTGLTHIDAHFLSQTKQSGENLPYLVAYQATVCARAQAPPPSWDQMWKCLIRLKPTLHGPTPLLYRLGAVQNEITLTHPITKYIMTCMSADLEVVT
# Vero [16] = test: cells; type: functional, cell-based; settings: Chlorocebus sabaeus
# Vero [17] = test: cells; type: functional; settings: Chlorocebus sabaeus
# [18] = biological target: Induced myeloid leukemia cell differentiation protein Mcl-1 (Homo sapiens, UniProt Q07820); type: functional
# Chain of Induced myeloid leukemia cell differentiation protein Mcl-1 (Q07820 whole entry): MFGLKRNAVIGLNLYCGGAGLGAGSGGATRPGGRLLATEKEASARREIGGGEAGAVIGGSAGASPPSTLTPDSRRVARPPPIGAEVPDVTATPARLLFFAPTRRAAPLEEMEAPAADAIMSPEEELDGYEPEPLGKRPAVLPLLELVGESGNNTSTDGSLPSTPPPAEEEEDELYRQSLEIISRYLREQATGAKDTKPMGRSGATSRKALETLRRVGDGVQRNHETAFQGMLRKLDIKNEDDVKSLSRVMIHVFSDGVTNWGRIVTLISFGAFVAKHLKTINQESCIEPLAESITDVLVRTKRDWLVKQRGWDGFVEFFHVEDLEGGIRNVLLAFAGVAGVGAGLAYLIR
smiles,measurement,setting,value
COC(=O)C1(C(C[N+](=O)[O-])c2ccco2)C(=O)NCC1c1ccccc1 (stereo unspecified),EC50,Mucolipin-3,7.77 µM (active)
same,EC50,Ion channel NompC,> 29.9 µM (not active)
COc1cc(NC(=O)c2cc3c(=O)n(C)c4ccccc4c3n2C)cc(OC)c1OC,EC50,Estrogen receptor [1],12.9 µM (not active)
O=C(Nc1ccc(Cl)cc1)Nc1ccc(Oc2ccccc2)cc1,IC50,NADPH oxidase 1,> 17 µM (not active)
Cc1c(CCC(=O)NCCCn2ccnc2)c(=O)oc2cc3oc4c(c3cc12)CCCC4,IC50,Insulin-degrading enzyme,4.31 µM (active)
same,IC50,[2],14.4 µM (not active)
CC1(OC(=O)CCc2ccccc2)C(=O)C=C2C=C(c3ccc(C#N)cc3)N(Cc3ccco3)C=C2C1=O (stereo unspecified),EC50,[3],> 100 µM (active)
Cc1ccc(S(=O)(=O)N2CCc3ccccc3C2CN2C(=O)c3ccccc3C2=O)cc1 (stereo unspecified),EC50,Mucolipin-3,> 29.9 µM (not active)
same,EC50,Ion channel NompC,> 29.9 µM (not active)
same,CC50,[4],45.1 µM (active)
O=C(NCc1ccco1)c1cc2c(s1)CSC2,IC50,Estrogen receptor beta [5],0.0368 µM (not active)
same,IC50,Estrogen receptor [6],9.41 µM (active)
same,IC50,Estrogen receptor beta [7],7.85 µM (active)
COc1ccc(-n2ncc3c(N4CCCCC4)ncnc32)cc1,AC50,[8],2.87 µM (active)
same,AC50,[9],1.48 µM (active)
same,AC50,[10],> 70 µM (inactive)
same,IC50,[11],> 39.8 µM (not active)
same,EC50,[12],0.282 µM (active)
same,EC50,[13],1.72 µM (inconclusive)
same,AC50,[14],11 µM (active)
CCN(CC)c1ccc(/C=C2\C(=O)NC(=S)N(c3ccc(OC)cc3OC)C2=O)o1,IC50,Insulin-degrading enzyme,> 6.21 µM (active)
same,IC50,[2],> 55.6 µM (not active)
same,EC50,[15],> 150 µM (inconclusive)
CNc1ccc(Br)cc(C(=O)/C=C/c2cccc(OC)c2)c1=O,IC50,NS3,8.97 µM (active)
same,IC50,Vero [16],7.82 µM (active)
same,CC50,Vero [17],12.7 µM (active)
same,IC50,[18],1.92 µM (active)
C1CCC(c2nn3c(-c4[nH]nc5c4CCC5)nnc3s2)CC1,IC50,Estrogen receptor beta [5],> 50 µM (not active)
same,IC50,Estrogen receptor [6],> 50 µM (not active)
same,IC50,Estrogen receptor beta [7],10.2 µM (active)
CC(=O)Nc1ccccc1OC(=O)c1sc2ccccc2c1Cl,IC50,NADPH oxidase 1,> 17 µM (not active)
